Measurements as given in patent US20080213810A1, “Screening Method for Hiv Rt Inhibitors” (priority 2005, published 2008).

Target: HIV RT (Human immunodeficiency virus type 1 group M subtype B, UniProt P04585)
Experiment: Enzyme kinetics studies (1/v versus 1/[dTTP])
Assay type: biochemical
Conditions: 40-3 μM dTTP, 2-0 μM compound 1, poly(rA)oligo(dT); lines cross at the Y-axis intercept
Experimental: The enzyme kinetics studies were carried out using a protocol involving a 4×5 matrix of varying substrate and inhibitor concentrations over ranges of 40-3 μM of dTTP and 2-0 μM of compound 1.
The reaction mixtures (50 μl) further contained 50 mM Tris.HCl (pH 7.8), 5 mM dithiothreitol, […], 500 μM EDTA, 150 mM KCl, 5 mM MgCl2, 0.15 mM of the template/primer poly(rA)oligo(dT) and 0.06% Triton X-100. The reaction mixtures were incubated at 37° C. for 15 min, at which time 100 μl of calf thymus DNA ([…]), 2 ml of Na4P207 (0.1 M in 1 M HCl), and 2 ml of trichloroacetic acid (10% v/v) were added. The solutions were kept on ice for 30 min, after which the acid-insoluble material was washed and analyzed for radioactivity. When the reciprocal of the reaction velocity (1/v) is plotted against the reciprocal of the substrate concentration (1/[dTTP]) in the presence of different concentrations of compound 1, the graph (See FIG. 1) is obtained.
Since all the lines cross at the intercept with the Y-axis it is clear that this compound has a competitive mode of HIV RT inhibition.

Cn1c2ccccc2c2c1cc(C#N)c(=O)n2-c1ccc([N+](=O)[O-])cc1 [Compound 1]
mode of HIV RT inhibition: competitive
